From article PMC9916951, “Enzyme Inhibition-Based Assay to Estimate the Contribution of Formulants to the Effect of Commercial Pesticide Formulations” (International Journal of Molecular Sciences, 2023)
Read-outs that look alike come from different tables or passages of the source.

How the values were obtained:
trypsin = target: T1, trypsin (Sus scrofa, UniProt P00761); experiment: Single-enzyme assay system, trypsin activity (absorbance 253 nm); assay type: biochemical, porcine
T1 construct: purchased Sigma-Aldrich; host or cells: porcine pancreas
T1 sequence (P00761 9-231): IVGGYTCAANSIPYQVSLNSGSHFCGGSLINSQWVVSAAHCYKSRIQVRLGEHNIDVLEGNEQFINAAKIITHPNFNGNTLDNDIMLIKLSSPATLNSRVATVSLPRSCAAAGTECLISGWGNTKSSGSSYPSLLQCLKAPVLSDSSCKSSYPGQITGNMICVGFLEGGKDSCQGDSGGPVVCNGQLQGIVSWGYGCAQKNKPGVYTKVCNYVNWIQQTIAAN
Description: (§1) The activities of enzyme assay systems were determined by measuring the absorbance of reaction mixture solutions or bioluminescence intensity in the solutions of the analyzed pesticide active ingredients or in the control solution.
Trypsin activity was analyzed in the reaction mixture containing 490 μL of the 0.1 M Clark and Lubs buffer pH 7.6, 11 mU of trypsin, 40 μL of 1 mM hydrochloric acid, and 460 μL of the 0.5 mM BAEE solution. The absorbances of the solutions were measured at 253 nm.
(§2) The effects of the active ingredients of pesticide and the solvents on the activity of the enzymes in the single-enzyme assay systems were determined as the relative activity according to the formula A = (At/Ac)∙100%, where Ac and At are the enzyme activity in the control and in the analyte solution, respectively.
(§3) The parameter IC50 was used to estimate the inhibitory effect of the active ingredients of pesticides on the enzyme activity and the bioluminescence intensity of a multi-enzyme assay system. It is the concentration of the active ingredient decreasing the enzyme activity by 50%.

[1] = target: T2, lactate dehydrogenase (LDH) (Oryctolagus cuniculus, UniProt P13491); experiment: Single-enzyme assay system, LDH activity (absorbance 340 nm); assay type: biochemical, rabbit
T2 construct: purchased Sigma-Aldrich; host or cells: rabbit muscle
Description: as §1
(§4) The activities of single-enzyme assay systems with Red, ADH, and LDH were determined by changes in the absorbance at 340 nm.
The reaction mixture for the LDH-catalyzed reaction comprised 850 μL of the 0.05 M potassium-phosphate buffer pH 8.0, 9 U of LDH, 40 μL of the 3.25 mM NADH solution, 30 μL of the 69 mM pyruvate solution, and 50 μL of the analyte solution or the solvent solution (control).
as §2, §3

[2] = target: T3, alcohol dehydrogenase (ADH) (Saccharomyces cerevisiae, UniProt P00330); experiment: Single-enzyme assay system, ADH activity (absorbance 340 nm); assay type: biochemical, baker's yeast
T3 construct: purchased Sigma-Aldrich; host or cells: baker’s yeast
T3 sequence (P00330 whole entry): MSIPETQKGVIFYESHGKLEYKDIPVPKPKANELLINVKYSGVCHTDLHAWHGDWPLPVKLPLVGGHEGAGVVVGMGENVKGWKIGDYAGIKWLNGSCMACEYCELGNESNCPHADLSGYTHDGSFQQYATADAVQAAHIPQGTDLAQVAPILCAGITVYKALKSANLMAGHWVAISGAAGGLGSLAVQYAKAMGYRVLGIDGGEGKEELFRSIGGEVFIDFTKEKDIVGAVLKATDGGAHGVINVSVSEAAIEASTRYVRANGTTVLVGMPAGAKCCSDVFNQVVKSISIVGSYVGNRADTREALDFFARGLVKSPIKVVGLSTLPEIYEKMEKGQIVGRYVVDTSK
Description: as §1, §4
The activity of the ADH was estimated by using the following reaction mixture: 1500 μL of the potassium-phosphate buffer 0.05 M pH 7.85, 750 mU of ADH, 40 μL of the 2.4 mM NAD^+ solution, and 25 μL of 95% ethanol. Distilled water and acetonitrile were used as control solutions.
as §2, §3

[3] = target: NAD(P)H:FMN-oxidoreductase + luciferase (Red + Luc); experiment: Coupled enzyme assay system Red + Luc, luminescence intensity; assay type: biochemical, Vibrio fischeri; Photobacterium leiognathi; settings: active ingredient alone (AIa)
Description: (§5) The activities of the multi-enzyme assay systems were determined from the values of the luminescence intensity in the presence of the control or the analyte solutions.
To analyze the effect of pesticides on the luminescence intensity of the Red + Luc coupled enzyme assay system, we used the following reaction mixture: 290 μL of the 0.05 M potassium-phosphate buffer pH 6.8; 5 μL of the Red + Luc mixture, preliminarily diluted in 5 mL of the buffer solution; 50 μL of the 0.0025% tetradecanal solution; 50 μL of the 0.5 mM FMN solution; 100 μL of the 0.4 mM NADH solution; and 10–200 μL of the analyte solution or the solvent solution used as a control. Ratio of Red to Luc in the reaction mixture was 1.2:1; and their concentrations were about 15 and 13 nM, respectively.
(§6) The effect of the pesticide active ingredients and solvents on the multi-enzyme reactions was estimated from the residual luminescence intensity calculated according to the formula I = (It/Ic)∙100%, where Ic and It are the average values of luminescence intensity in the presence of the control or analyte solution, respectively.
as §3

[4] = target: alcohol dehydrogenase + NAD(P)H:FMN-oxidoreductase + luciferase (ADH + Red + Luc); experiment: Three-enzyme assay system ADH + Red + Luc, luminescence intensity; assay type: biochemical, baker's yeast; Vibrio fischeri; Photobacterium leiognathi; settings: active ingredient alone (AIa)
Description: as §5
An analysis of the activity of the ADH + Red + Luc three-enzyme assay system was performed using the reaction mixture containing 350 μL of the 0.05 M potassium-phosphate buffer pH 6.9; 5 μL of 0.5 mg/mL ADH; 5 μL of the Red + Luc solution, preliminarily diluted in 5 mL of the buffer solution; 50 μL of the 0.0025% tetradecanal solution; 100 μL of the 0.4 mM NAD^+ solution; 10 μL of the 0.5 mM FMN solution; 5 μL of 95% ethanol; and 10–100 μL of the solvent (control) or the analyte solution. The proportions of ADH, Red, and Luc in the reaction mixture were 10:1.2:1, and their concentrations were about 120, 14, and 12 nM, respectively.
as §6, §3

[5] = target: lactate dehydrogenase + NAD(P)H:FMN-oxidoreductase + luciferase (LDH + Red + Luc); experiment: Three-enzyme assay system LDH + Red + Luc, luminescence intensity; assay type: biochemical, rabbit; Vibrio fischeri; Photobacterium leiognathi; settings: active ingredient alone (AIa)
Description: as §5
The reaction mixture for analyzing the luminescence intensity of the LDH + Red + Luc three-enzyme assay system consisted of 5 μL of 0.5 mg/mL LDH; 300 μL of the 0.05 M potassium-phosphate buffer pH 7.1; 10 μL of the 15 mM lactate solution; 50 μL of the 0.0025% tetradecanal solution; 10 μL of the Red + Luc solution, preliminarily diluted in 5 mL of the buffer solution; 10 μL of the 0.5 mM FMN solution; 100 μL of the 0.5 mM NAD^+ solution; and 10–50 μL of the analyte solution or the solvent solution (control). The proportions of LDH, Red, and Luc in the reaction mixture were 1.4:1.2:1, and their concentrations were about 36, 31, and 26 nM, respectively.
as §6, §3

[6] = target: T4, butyrylcholinesterase (BChE) (Equus caballus, UniProt P81908); experiment: Single-enzyme assay system, BChE activity (Ellman's method, 412 nm); assay type: biochemical, equine
T4 construct: purchased Sigma-Aldrich; host or cells: equine serum
T4 sequence (P81908 whole entry): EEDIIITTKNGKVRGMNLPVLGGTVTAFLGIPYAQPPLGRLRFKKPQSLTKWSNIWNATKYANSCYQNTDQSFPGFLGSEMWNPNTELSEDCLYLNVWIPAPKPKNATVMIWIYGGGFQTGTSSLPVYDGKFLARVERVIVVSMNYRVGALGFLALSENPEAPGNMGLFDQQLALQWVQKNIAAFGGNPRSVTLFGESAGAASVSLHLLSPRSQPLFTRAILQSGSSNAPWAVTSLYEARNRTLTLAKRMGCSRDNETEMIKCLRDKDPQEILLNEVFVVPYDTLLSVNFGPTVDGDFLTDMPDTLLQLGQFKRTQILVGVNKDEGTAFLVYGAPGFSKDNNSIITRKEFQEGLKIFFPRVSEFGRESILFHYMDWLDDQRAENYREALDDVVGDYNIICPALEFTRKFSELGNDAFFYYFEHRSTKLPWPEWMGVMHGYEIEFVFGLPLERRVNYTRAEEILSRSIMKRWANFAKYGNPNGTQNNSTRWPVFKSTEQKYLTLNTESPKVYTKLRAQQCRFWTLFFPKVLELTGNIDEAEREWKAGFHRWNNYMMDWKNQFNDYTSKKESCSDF
Description: as §1
To analyze BChE activity Ellman’s method was used. The absorbance of the solutions was measured at the 412 nm. We used the following reaction mixture: 800–850 μL of the 0.05 M potassium-phosphate buffer pH 8.0, 70 mU of BChE, 60 μL of 0.2 mM 5,5′-dithiobis (2-nitrobenzoic acid), 60 μL of 0.2 mM S-BCh-I, and 50–100 μL of the analyte solution or the solvent solution used as control.
as §2, §3

[7] = maximum residual levels of the active ingredient, Russian Federation; cited from earlier work
[8] = target: alkaline phosphatase (ALP) (Bos taurus, UniProt P19111); experiment: Single-enzyme assay system, ALP activity (absorbance 405 nm); assay type: biochemical, bovine; settings: 13.5 mg/L of fenvalerate (AIa)
alkaline phosphatase (ALP), sequence (P19111 20-506): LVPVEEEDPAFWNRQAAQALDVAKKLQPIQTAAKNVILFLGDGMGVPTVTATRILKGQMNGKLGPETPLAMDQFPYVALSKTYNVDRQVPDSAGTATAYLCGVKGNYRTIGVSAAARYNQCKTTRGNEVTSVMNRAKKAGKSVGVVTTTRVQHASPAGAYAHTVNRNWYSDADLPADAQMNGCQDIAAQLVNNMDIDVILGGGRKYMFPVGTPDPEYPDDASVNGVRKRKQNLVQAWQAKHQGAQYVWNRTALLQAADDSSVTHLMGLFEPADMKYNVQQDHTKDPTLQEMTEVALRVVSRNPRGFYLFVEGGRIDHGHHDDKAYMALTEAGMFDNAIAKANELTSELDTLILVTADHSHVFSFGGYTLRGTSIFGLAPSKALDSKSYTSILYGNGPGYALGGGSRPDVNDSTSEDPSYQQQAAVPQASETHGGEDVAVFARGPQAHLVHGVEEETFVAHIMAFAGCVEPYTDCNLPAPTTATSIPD
Description: as §1
The activity of the ALP was analyzed in the following reaction mixture: 990 μL of the glycine NaOH buffer pH 9.6 containing 0.5 mM MgCl2, 1.2 mU of the ALP solution, 8 μL of the 33 mM […] solution, and 30–50 μL of the analyte solution. The absorbance of the solutions was measured at 405 nm.
as §2, §3

[9] = target: NAD(P)H:FMN-oxidoreductase (Red); experiment: Single-enzyme assay system, Red activity (absorbance 340 nm); assay type: biochemical, Vibrio fischeri; settings: active ingredient alone (AIa)
Description: as §1, §4
The reaction mixture for the Red-catalyzed reaction consisted of 750 μL of the 0.05 M potassium-phosphate buffer pH 7.25, 6 mU of Red, 100 μL of the 0.4 mM NADH solution, 10 μL of the 0.5 mM FMN solution, and 5–100 μL of the analyte solution or the solvent (control).
as §2, §3

[10] = tested on: Photobacterium phosphoreum; experiment: Bioluminescence of luminous bacterium P. phosphoreum; assay type: cell-based
Description: Bacterium P. phosphoreum 1889 was provided by the museum at the IBP SB RAS [68]. P. phosphoreum cells were grown for 24 h on solid medium for marine bacteria. The cells were suspended in the sodium-phosphate buffer pH 7.4.
The effects of active ingredients of pesticides on the luminous bacterium were determined by changes in the bacterial luminescence intensity in the presence of the analyte relative to the control value. The solvent was used as a control solution. The reaction mixture for analyzing the luminescence intensity of luminous bacterium in the presence of control solution contained 450 μL of bacterial suspension and 5 μL of ethanol or 50 μL of distilled water, used as solvents for active ingredients of pesticides. A cuvette with the reaction mixture was placed into a luminometer, and luminescence intensity (Ic) was measured after 1 min. Then, another aliquot of bacterial suspension and 5 or 50 μL of a pesticide active ingredient solution were placed into a luminometer cuvette, and luminescence intensity (It) was measured after 1 min. The residual luminescence intensity was determined according to the formula I = (It/Ic) ∙ 100%.
The parameter EC50 was used to estimate the inhibitory effect of the active ingredients of pesticides on the bioluminescence of P. phosphoreum. […]

[11] = active ingredient alone (AIa), read-out: IC50, LDH (converted)
[12] = active ingredient alone (AIa), read-out: IC50, ADH (converted)
[13] = active ingredient alone (AIa), read-out: IC50, BChE (converted)

SMILES | IC50 [1, 11] [µM] | IC50 [2, 12] [µM] | IC50, Red + Luc [3] | IC50, ADH + Red + Luc [4] | IC50, LDH + Red + Luc [5] | IC50 [6, 13] [µM] | MRL RUS [7] [mg/kg] | also measured
CC1(C)C(C=C(Cl)Cl)C1C(=O)OC(C#N)c1cccc(Oc2ccccc2)c1 (stereo not shown) [Cypermethrin, cypermethrin] | 60.1 | 0.48 | 1.8 µg/mL | 0.2 µg/mL | 6.5 µg/mL |  |  | IC50, Trypsin (trypsin; active ingredient alone (AIa)): No inhibitory effects
CC1(C)[C@H](C(=O)O[C@H](C#N)c2cccc(Oc3ccccc3)c2)[C@@H]1C=C(Br)Br [Deltamethrin, deltamethrin] | 59.4 | 20.6 | 3.7 µg/mL | 1.0 µg/mL | 7.7 µg/mL | 198 | 0.01 to 0.3 | 
CCOP(=S)(OCC)Oc1cc(C)nc(C(C)C)n1 [Diazinon, diazinon] |  |  | 2234 µg/mL | 11 µg/mL | 3351 µg/mL |  | 0.1 to 0.5 | IC50, LDH ([1]; active ingredient alone (AIa)): No inhibitory effects; IC50 [2]: 47.6 µM
CC(C)C(C(=O)OC(C#N)c1cccc(Oc2ccccc2)c1)c1ccc(Cl)cc1 (stereo not shown) [Fenvalerate, fenvalerate] | 7.14 |  | 4.8 µg/mL | 1.6 µg/mL | 31.7 µg/mL | 286 |  | increase in trypsin activity (trypsin; 10 mg/L of fenvalerate (AIa)): 28%; increase in ALP activity [8]: 26%; IC50, ADH ([2]; active ingredient alone (AIa)): No inhibitory effects
O=C(O)CNCP(=O)(O)O [Glyphosate, glyphosate] |  | 30400 | 288 µg/mL | 3200 µg/mL | 935 µg/mL | 207 |  | IC50 (trypsin; active ingredient alone (AIa), read-out: IC50, Trypsin (converted)): 5690 µM; IC50 (trypsin; glyphosate as AIa, read-out: IC50, trypsin (Figure 2 legend) (converted)): 5680 µM; IC50, LDH ([1]; active ingredient alone (AIa)): no 50% inhibition; IC50, Red [9]: no 50% inhibition; concentration giving 50% inhibition of Red + Luc activity [3]: 0.3 g/L
O=[N+]([O-])NC1=NCCN1Cc1ccc(Cl)nc1 [Imidacloprid, imidacloprid] |  |  | – (No inhibitory effect of the AIa and AIf was detected in the tested concentration range.) | – (No inhibitory effect of the AIa and AIf was detected in the tested concentration range.) | – (No inhibitory effect of the AIa and AIf was detected in the tested concentration range.) |  | 0.1 to 1.0 | EC50, P. phosphoreum bioluminescence ([10]; active ingredient alone (AIa), luminescence after 1 min): did not produce any detectable effect; EC20 (20% quenching of bacterial bioluminescence) ([10]; imidacloprid as AIa and as AIf): 50 µg/mL
CCOC(=O)CC(SP(=S)(OC)OC)C(=O)OCC (stereo not shown) [Malathion, malathion] |  |  |  |  |  |  | 0.05 to 1.0 | IC50 [6]: 1820 µM; IC50 [1]: 1060 µM
